In publication PMC5279725 (PLoS ONE, 2017):

How the values were obtained:
MPO in CF sputum sol [1] = test: MPO peroxidase activity (TMB) in CF sputum sol ± neutrophils (PMN), heat-killed P. aeruginosa or heat-aggregated IgG; type: biochemical; details: CF sol only, + killed P. aeruginosa, + Agg IgG
Description: To these samples were added 1×10^6 neutrophils for 1 hour at 37°C. These samples were then analyzed for MPO peroxidase activity by TMB assay, described below.
(§1) To measure MPO peroxidase activity using TMB, 20 μl of assay supernatant, CF sol, or neutrophil lysate was serially diluted and then combined with 100 μl of TMB in a non-treated 96-well plate followed by 100 μl of 2.5 N H2SO4 (stop buffer) and absorbance was read at 450 nm. For MPO functional assays using ABTS, 150 μl of ABTS solution was added to each sample and incubated for 5 minutes before adding 100 μl of 1% SDS to stop the reaction. Absorbance was read at 405 nm. O-dianisidine working solution was prepared by making a 0.166 mg/ml solution in 50 mM phosphate-citrate buffer, pH 5.0 with a final of 0.006% H2O2 added immediately before use. For MPO measurements, 100 μl of the prepared O-dianisidine solution was added to each sample and incubated for 2 minutes before adding 100 μl of 2.5 N H2SO4 to stop the reaction. Absorbance was read at 405 nm.

MPO in CF sputum sols = test: MPO peroxidase activity (TMB) in 14 clinical CF sputum sols; type: biochemical
Description: Expectorated sputum samples were collected in sterile containers and immediately placed on ice. The soluble fraction (sol) was extracted as a supernatant of free flowing liquid after cold (4°C) centrifugation at 14,000 g for 60 minutes, similar to previously described methods. Due to the normal differences in CF sputum viscosity, sol fractions were not normalized for protein content consistent with previously described methods.
as §1

MPO in CF sputum sol [2] = test: PIC1 dose-response on MPO activity (TMB) in CF sputum sol #2m; type: biochemical
Description: as §1

MPO in CF sol = test: pH effect on MPO peroxidase activity (TMB) in CF sol; type: biochemical; details: PIC1 7.5 mM (pH 4.7) vs sol acidified to pH 4.0
Description: Assays of pH effect on MPO peroxidase activity in CF sols was performed by adjusting one representative CF sol, initially at a pH of 7.0, to pH values of 6.0, 5.0, and 4.0 using H2SO4. […] TMB was added after 5 minutes.
as §1

MPO in neutrophil lysate = test: MPO peroxidase activity (TMB) in neutrophil lysate; type: biochemical; details: 0.9 mM PIC1 vs no PIC1, n = 4, P < 0.001
Description: Neutrophils from the blood of healthy volunteers were purified from heparinized blood by Hypaque-Ficoll step gradient centrifugation, dextran sedimentation, and hypotonic lysis, as previously described. Neutrophils were adjusted to 1×10^7 cells/ml for the functional studies. Neutrophils were sedimented, lysed in 1% Triton X-100, and 1×10^6 cell/ml equivalent aliquots were used for neutrophil lysate assays.
(§2) MPO peroxidase activity utilizing pure MPO was assayed by combing the MPO solution, diluted to 160 nM with PBS buffer, with an inhibitor, at denoted concentrations, in a 1:1 ratio (v/v) for 1 min. prior to adding TMB.
as §1, with “For MPO measurements, 100 μl of the prepared O-dianisidine solution was added to each sample and incubated for 2 minutes before adding 100 μl of 2.5 N H2SO4 to stop the reaction.” left out

purified MPO [3] = test: Purified MPO oxidation of TMB; type: biochemical
Description: as §2, §1

purified MPO [4] = test: Purified MPO oxidation of ABTS; type: biochemical; details: PIC1 0.5–0.9 mM
Description: as §2, §1

purified MPO [5] = test: Purified MPO oxidation of O-dianisidine; type: biochemical; details: PIC1 0.5–0.9 mM
Description: as §2, §1

purified MPO [6] = test: Dose-response inhibition of pure MPO at various MPO concentrations; type: biochemical
Description: as §1

MPO heme ring [7] = test: Spectral analysis of MPO heme ring with H2O2; details: 2.5 mM PIC1, 200 μM H2O2
Description: (§3) As each component is added to the MPO it is allowed to incubate for 5 minutes. […] Absorbance values were recorded from 300–550 nm.

MPO heme ring [8] = test: Spectral analysis of MPO heme ring with bleach (NaOCl); details: 2 μM MPO, 2.5 mM PIC1, bleach 1:1000, n = 2
Description: as §3

MPO = test: Ferrozine assay of Fe release from MPO in the presence of bleach; details: 2 μM MPO, 2.5 mM PIC1, bleach 1:1000; 562 nm
Description: Iron release from MPO was measured utilizing a ferrozine assay. After the absorbance spectra was recorded, 100 μl of ascorbic acid (100 mM) was added to each sample and allowed to incubate for 5 minutes. Then 50 μl of ammonium acetate (16%) and 50 μl of ferrozine (16 mM) were added to the samples and mixed. After incubating for 5 minutes, absorbance was measured at 562 nm. A standard curve was prepared using ammonium Fe(III) sulfate and a linear regression was used to calculate the free iron concentration.

[9] = Reversal/inhibition of TMB oxidation, PIC1 added before TMB or after TMB incubated with MPO; type: biochemical; details: PIC1 added after MPO and TMB had incubated
Description: We then tested whether PIC1 could reverse the oxidized state of TMB after incubation with MPO.

[10] = Anti-oxidant assay: TMB oxidized by solid-phase MPO, transferred to uncoated well; type: biochemical; details: absorbance 450 nm, n = 4, P = 0.02
Description: Pure MPO was coated onto an Immunlon-2 96 well plate at 24 μg/ml in carbonate buffer overnight at 4°C. The plate was washed to remove unbound protein with PBS and 0.05% Tween, and then 100 μl of TMB was added. […] After 1 minute, 100 μl of 2.5 N H2SO4 was added to stop the reaction and absorbance was read at 450 nm.

C1q = details: cited from earlier work
complement activation = details: cited from earlier work
Excerpt: DMSO as a diluent decreas ...

[11] = cited from earlier work
Excerpt: Evidence from previous investigators implicate MPO as a major contributor to CF lung damage, which is consistent with MPO being the most prevalent peroxidase in neutrophils and the clear role of neutrophils mediating lung destruction in CF.

For IALILEPICCQERAA-dPEG24 [PIC1], the “MPO oxidation of TMB” value (MPO in CF sputum sol [1]) was “dramatically inhibited MPO oxidation of TMB in all conditions”, the “median MPO activity after PIC1” value (MPO in CF sputum sols; 7.5 mM PIC1, 14 CF sputum samples, as number of neutrophils lysed to yield equivalent TMB oxidation, baseline median 94.0, P = 0.02) was 27.9 and the “decrease in median MPO activity” value (MPO in CF sputum sols; 7.5 mM PIC1, 14 CF sputum samples, vs baseline, P = 0.02) was 3.4 fold. The “change in MPO activity” value (MPO in CF sputum sols; 7.5 mM PIC1, each of 14 samples) was “decrease in MPO activity”, the MPO-postPIC1 median (MPO in CF sputum sols; PIC1 7.5 mM, 14 samples, MPO-pre median 93.975) was 27.935 x 10E6 and the MPO-postPIC1 (MPO in CF sputum sols; PIC1 7.5 mM, sample 1e, MPO-pre 117.41) was 30.1 x 10E6. The MPO-postPIC1 (MPO in CF sputum sols; PIC1 7.5 mM, sample 2j, MPO-pre 17.29) was 0 x 10E6, the MPO-postPIC1 (MPO in CF sputum sols; PIC1 7.5 mM, sample 2m, MPO-pre 158.85) was 43.21 x 10E6 and the MPO-postPIC1 (MPO in CF sputum sols; PIC1 7.5 mM, sample 3i, MPO-pre 1117.64) was 493.15 x 10E6. For the same substance, the MPO-postPIC1 (MPO in CF sputum sols; PIC1 7.5 mM, sample 4a, MPO-pre 7.9) was 0 x 10E6, the MPO-postPIC1 (MPO in CF sputum sols; PIC1 7.5 mM, sample 5e, MPO-pre 305.93) was 173.21 x 10E6 and the MPO-postPIC1 (MPO in CF sputum sols; PIC1 7.5 mM, sample 10g, MPO-pre 71.54) was 19.09 x 10E6. The MPO-postPIC1 (MPO in CF sputum sols; PIC1 7.5 mM, sample 15e, MPO-pre 55.77) was 12.92 x 10E6, the MPO-postPIC1 (MPO in CF sputum sols; PIC1 7.5 mM, sample 17c, MPO-pre 77.44) was 25.77 x 10E6 and the MPO-postPIC1 (MPO in CF sputum sols; PIC1 7.5 mM, sample 28a, MPO-pre 325.09) was 297.05 x 10E6. For the same substance, the MPO-postPIC1 (MPO in CF sputum sols; PIC1 7.5 mM, sample 29e, MPO-pre 110.51) was 43.24 x 10E6, the MPO-postPIC1 (MPO in CF sputum sols; PIC1 7.5 mM, sample 34j, MPO-pre 68.92) was 16.55 x 10E6 and the MPO-postPIC1 (MPO in CF sputum sols; PIC1 7.5 mM, sample 1d, MPO-pre 229) was 214.65 x 10E6. The MPO-postPIC1 (MPO in CF sputum sols; PIC1 7.5 mM, sample 9d, MPO-pre 34.41) was 0 x 10E6, the “reduction in MPO activity” value (MPO in CF sputum sol [2]; 7.5 mM PIC1 vs no PIC1, n = 3, P = 0.001) was 11.5 fold and the “inhibition of MPO activity” value (MPO in CF sputum sol [2]; PIC1 titration) was “dose-dependent inhibition of MPO activity”. For the same substance, the “role of acidification in MPO inhibition” value (MPO in CF sol) was “not mediated by acidification of the sol”, the “inhibition of MPO activity” value (MPO in neutrophil lysate) was 12.5 fold and the “inhibition of purified MPO oxidation of TMB” value (purified MPO [3]; 0.9 mM PIC1, MPO 80 nM, n = 3, P < 0.001) was 28 fold. For the same substance, the “improvement in MPO inhibition compared with ABAH” value (purified MPO [3]; 0.9 mM, TMB, P = 0.002) was 7 fold, the “inhibition of purified MPO oxidation of ABTS” value (purified MPO [4]) was “dramatically inhibited” and the “inhibition of purified MPO oxidation of O-dianisidine” value (purified MPO [5]) was “dramatically inhibited”. The “inhibition of MPO peroxidase activity” value (purified MPO [6]; 0.5 mM PIC1, 20 μM MPO, P < 0.001) was 5.4 fold, the “inhibition of MPO peroxidase activity” value (purified MPO [6]; MPO concentrations up to 80 μM) was “Concentration dependent PIC1 inhibition of MPO peroxidase activity” and the heme ring protection (MPO heme ring [7]) was “able to inhibit oxidative damage to the heme ring and alteration of the iron charge state”. The “protection of MPO from bleach” value (MPO heme ring [8]) was “largely protected from the oxidative effects of bleach”, the “bleach-mediated iron release from MPO” value (MPO) was “able to prevent bleach-mediated release of iron from MPO” and the “reversal of TMB oxidation” value [9] was “the color change was reversed and the absorbance value was minimal”. The “reduction in oxidized TMB” value [10] was 20 fold, the C1 enzymatic activation (C1q) was “inhibits enzymatic activation” and the C1q binding affinity (C1q; similar to C1r-C1s-C1s-C1r tetramer) was “nanomolar affinity”. The “P. aeruginosa-initiated complement activation” value (complement activation; CF sputum sols) was “can inhibit P. aeruginosa-initiated complement activation”, the C5a generation (complement activation; CF sputum soluble fraction) was “can inhibit P. aeruginosa-mediated generation of the pro-inflammatory anaphylatoxin C5a” and the aqueous solubility [11] was “excellent aqueous solubility”. For the same substance, the tolerability in vivo [11] was “well tolerated in vivo”.
